{
  "source": "patent US20100298141A1",
  "about": "“SUBSTITUTED PYRIDINE N-OXIDE HERBICIDES” (E. I. DU PONT DE NEMOURS AND COMPANY, priority 2007, published 2010)",
  "key": {"barnyardgrass [1]": {"system": "barnyardgrass", "experiment": "Test A pre-/postemergence greenhouse test", "format": "in vivo, Echinochloa crus-galli", "details": "for Plant response rating, Barnyardgrass: 0 to 100 scale where 0 is no effect and 100 is complete control; for Barnyardgrass plant response rating: 0 to 100 scale", "procedure,_shortened": "(§1)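 Seeds sown in a loam soil–sand blend got a preemergence directed soil spray of compound in a non-phytotoxic solvent mixture containing surfactant. Postemergence sprays of the same formulation went at the same time onto plants 2–10 cm tall at the one- to two-leaf stage. Injury was scored visually against untreated controls after about ten days in the greenhouse.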"}, "crabgrass [2]": {"system": "crabgrass", "experiment": "Test A pre-/postemergence greenhouse test", "format": "in vivo, Digitaria sanguinalis", "details": "for Plant response rating, Crabgrass, Large: 0 to 100 scale where 0 is no effect and 100 is complete control; for Crabgrass, Large plant response rating: 0 to 100 scale", "procedure,_shortened": "as §1"}, "giant foxtail": {"system": "giant foxtail", "experiment": "Test A pre-/postemergence greenhouse test", "format": "in vivo, Setaria faberi", "details": "for Plant response rating, Foxtail, Giant: 0 to 100 scale where 0 is no effect and 100 is complete control; for Foxtail, Giant plant response rating: 0 to 100 scale", "procedure,_shortened": "as §1"}, "morningglory": {"system": "morningglory", "experiment": "Test A pre-/postemergence greenhouse test", "format": "in vivo, Ipomoea spp.", "details": "for Plant response rating, Morningglory: 0 to 100 scale where 0 is no effect and 100 is complete control; for Morningglory plant response rating: 0 to 100 scale", "procedure,_shortened": "as §1"}, "Italian ryegrass": {"system": "Italian ryegrass", "experiment": "Test C pre-/postemergence test", "format": "in vivo, Lolium multiflorum", "procedure,_shortened": "(§2)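 Test chemicals were formulated with surfactant in a non-phytotoxic solvent and sprayed both on freshly planted seeds (preemergence) and on 1- to 4-leaf plants of 2–18 cm (postemergence). Flooded-paddy pots received compound directly into 3 cm of standing water, maintained for the test.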"}, "bermudagrass": {"system": "bermudagrass", "experiment": "Test C pre-/postemergence test", "format": "in vivo, Cynodon dactylon", "procedure,_shortened": "as §2"}, "Surinam grass": {"system": "Surinam grass", "experiment": "Test C pre-/postemergence test", "format": "in vivo, Brachiaria decumbens", "procedure,_shortened": "as §2"}, "cocklebur": {"system": "cocklebur", "experiment": "Test C pre-/postemergence test", "format": "in vivo, Xanthium strumarium", "procedure,_shortened": "as §2"}, "crabgrass [3]": {"system": "crabgrass", "experiment": "Test C pre-/postemergence test", "format": "in vivo, Digitaria sanguinalis", "procedure,_shortened": "as §2"}, "Goosegrass": {"system": "Goosegrass", "experiment": "Test C pre-/postemergence test", "format": "in vivo, Eleusin indica", "procedure,_shortened": "as §2"}, "kochia": {"system": "kochia", "experiment": "Test C pre-/postemergence test", "format": "in vivo, Kochia scoparia", "procedure,_shortened": "as §2"}, "lambsquarters": {"system": "lambsquarters", "experiment": "Test C pre-/postemergence test", "format": "in vivo, Chenopodium album", "procedure,_shortened": "as §2"}, "pigweed": {"system": "pigweed", "experiment": "Test C pre-/postemergence test", "format": "in vivo, Amaranthus retroflexus", "procedure,_shortened": "as §2"}, "soybean": {"system": "soybean", "experiment": "Test C pre-/postemergence test", "format": "in vivo, Glycine max", "procedure,_shortened": "as §2"}, "[4]": {"system": "common (oilseed) sunflower", "experiment": "Test C pre-/postemergence test", "format": "in vivo, Helianthus annuus", "details": "for Sunflower plant response rating: preemergence, scale 0 (no effect) to 100 (complete control)", "procedure,_shortened": "as §2"}, "umbrella sedge": {"system": "umbrella sedge", "experiment": "Test C flooded paddy test", "format": "in vivo, Cyperus difformis", "details": "Flood", "procedure,_shortened": "(§3)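 Greenhouse pots flooded to 3 cm above soil at time of treatment received compound via the water, which stayed at that level.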"}, "barnyardgrass [5]": {"system": "barnyardgrass", "experiment": "Test C flooded paddy test", "format": "in vivo, Echinochloa crus-galli", "details": "Flood", "procedure,_shortened": "as §3"}, "[6]": {"details": "Postemergence, 500 g ai/ha, 0 is no effect, 100 is complete control"}, "[7]": {"details": "Preemergence, 125 g ai/ha, 0 no effect, 100 complete control"}, "[8]": {"details": "62 g ai/ha, Preemergence, scale 0 to 100"}, "[9]": {"details": "125 g ai/ha, preemergence, scale 0 (no effect) to 100 (complete control)"}, "[10]": {"details": "Preemergence, 31 g ai/ha, scale 0 to 100 (0 no effect, 100 complete control)"}, "[11]": {"details": "preemergence, 250 g ai/ha, scale 0 (no effect) to 100 (complete control)"}, "[12]": {"details": "31 g ai/ha, scale 0 to 100 (0 no effect, 100 complete control)"}, "[13]": {"details": "125 g ai/ha, scale 0 to 100, 0 no effect, 100 complete control, 13 to 15 days"}, "[14]": {"details": "250 g ai/ha, scale 0 to 100, 0 no effect, 100 complete control, 13 to 15 days"}},
  "data": [
    {"smiles": "Cn1nc(C(F)(F)F)c(C[S+]([O-])c2ccc(F)c[n+]2[O-])c1Cl", "note": "(stereo not shown) [Compound 54]", "values": [
      {"measurement": "Plant response rating, Barnyardgrass", "setting": "barnyardgrass [1]; Postemergence, 125 g ai/ha", "value": 70},
      {"measurement": "Barnyardgrass plant response rating", "setting": "barnyardgrass [1]; [6]", "value": 80},
      {"measurement": "Barnyardgrass plant response rating", "setting": "barnyardgrass [1]; [7]", "value": 80},
      {"measurement": "Plant response rating, Barnyardgrass", "setting": "barnyardgrass [1]; Preemergence, 500 g ai/ha", "value": 90},
      {"measurement": "Plant response rating, Crabgrass, Large", "setting": "crabgrass [2]; Postemergence, 125 g ai/ha", "value": 20},
      {"measurement": "Crabgrass, Large plant response rating", "setting": "crabgrass [2]; [6]", "value": 80},
      {"measurement": "Crabgrass, Large plant response rating", "setting": "crabgrass [2]; [7]", "value": 80},
      {"measurement": "Plant response rating, Crabgrass, Large", "setting": "crabgrass [2]; Preemergence, 500 g ai/ha", "value": 90},
      {"measurement": "Plant response rating, Foxtail, Giant", "setting": "giant foxtail; Postemergence, 125 g ai/ha", "value": 60},
      {"measurement": "Foxtail, Giant plant response rating", "setting": "giant foxtail; [6]", "value": 80},
      {"measurement": "Foxtail, Giant plant response rating", "setting": "giant foxtail; [7]", "value": 80},
      {"measurement": "Plant response rating, Foxtail, Giant", "setting": "giant foxtail; Preemergence, 500 g ai/ha", "value": 90},
      {"measurement": "Plant response rating, Morningglory", "setting": "morningglory; Postemergence, 125 g ai/ha", "value": 60},
      {"measurement": "Morningglory plant response rating", "setting": "morningglory; [6]", "value": 90},
      {"measurement": "Morningglory plant response rating", "setting": "morningglory; [7]", "value": 10},
      {"measurement": "Plant response rating, Morningglory", "setting": "morningglory; Preemergence, 500 g ai/ha", "value": 80},
      {"measurement": "Ryegrass, Italian plant response rating", "setting": "Italian ryegrass; [8]", "value": 45},
      {"measurement": "Ryegrass, Italian plant response rating", "setting": "Italian ryegrass; [9]", "value": 70},
      {"measurement": "Plant response rating, Ryegrass, Italian", "setting": "Italian ryegrass; [10]", "value": 0},
      {"measurement": "Ryegrass, Italian plant response rating", "setting": "Italian ryegrass; [11]", "value": 98},
      {"measurement": "Bermudagrass plant response rating", "setting": "bermudagrass; 62 g ai/ha, Preemergence, scale 0 to 100 (0 no effect, 100 complete control)", "value": 100},
      {"measurement": "Bermudagrass plant response rating", "setting": "bermudagrass; [9]", "value": 100},
      {"measurement": "Plant response rating, Bermudagrass", "setting": "bermudagrass; [10]", "value": 98},
      {"measurement": "Bermudagrass plant response rating", "setting": "bermudagrass; [11]", "value": 100},
      {"measurement": "Surinam Grass plant response rating", "setting": "Surinam grass; [8]", "value": 90},
      {"measurement": "Surinam Grass plant response rating", "setting": "Surinam grass; [9]", "value": 100},
      {"measurement": "Plant response rating, Surinam Grass", "setting": "Surinam grass; [10]", "value": 55},
      {"measurement": "Surinam Grass plant response rating", "setting": "Surinam grass; [11]", "value": 100},
      {"measurement": "Cocklebur plant response rating", "setting": "cocklebur; [8]", "value": 0},
      {"measurement": "Cocklebur plant response rating", "setting": "cocklebur; [9]", "value": 0},
      {"measurement": "Plant response rating, Cocklebur", "setting": "cocklebur; [10]", "value": 0},
      {"measurement": "Cocklebur plant response rating", "setting": "cocklebur; [11]", "value": 0},
      {"measurement": "Crabgrass, Large plant response rating", "setting": "crabgrass [3]; [8]", "value": 100},
      {"measurement": "Crabgrass, Large plant response rating", "setting": "crabgrass [3]; [9]", "value": 100},
      {"measurement": "Plant response rating, Crabgrass, Large", "setting": "crabgrass [3]; [10]", "value": 85},
      {"measurement": "Crabgrass, Large plant response rating", "setting": "crabgrass [3]; [11]", "value": 100},
      {"measurement": "Goosegrass plant response rating", "setting": "Goosegrass; [8]", "value": 100},
      {"measurement": "Goosegrass plant response rating", "setting": "Goosegrass; [9]", "value": 100},
      {"measurement": "Plant response rating, Goosegrass", "setting": "Goosegrass; [10]", "value": 95},
      {"measurement": "Goosegrass plant response rating", "setting": "Goosegrass; [11]", "value": 100},
      {"measurement": "Kochia plant response rating", "setting": "kochia; [8]", "value": 100},
      {"measurement": "Kochia plant response rating", "setting": "kochia; [9]", "value": 100},
      {"measurement": "Plant response rating, Kochia", "setting": "kochia; [10]", "value": 50},
      {"measurement": "Kochia plant response rating", "setting": "kochia; [11]", "value": 100},
      {"measurement": "Lambsquarters plant response rating", "setting": "lambsquarters; [8]", "value": 90},
      {"measurement": "Lambsquarters plant response rating", "setting": "lambsquarters; [9]", "value": 100},
      {"measurement": "Plant response rating, Lambsquarters", "setting": "lambsquarters; [10]", "value": 0},
      {"measurement": "Lambsquarters plant response rating", "setting": "lambsquarters; [11]", "value": 100},
      {"measurement": "Pigweed plant response rating", "setting": "pigweed; [8]", "value": 100},
      {"measurement": "Pigweed plant response rating", "setting": "pigweed; [9]", "value": 100},
      {"measurement": "Plant response rating, Pigweed", "setting": "pigweed; [10]", "value": 0},
      {"measurement": "Pigweed plant response rating", "setting": "pigweed; [11]", "value": 100},
      {"measurement": "Plant response rating, Soybean", "setting": "soybean; [10]", "value": 0},
      {"measurement": "Soybean plant response rating", "setting": "soybean; [11]", "value": 60},
      {"measurement": "Sunflower plant response rating", "setting": "[4]; 125 g ai/ha", "value": 0},
      {"measurement": "Plant response rating, Sunflower", "setting": "[4]; [10]", "value": 0},
      {"measurement": "Sunflower plant response rating", "setting": "[4]; 250 g ai/ha", "value": 0},
      {"measurement": "Plant response rating, Sedge, Umbrella", "setting": "umbrella sedge; [12]", "value": 0},
      {"measurement": "Plant response rating, Sedge, Umbrella", "setting": "umbrella sedge; [13]", "value": 60},
      {"measurement": "Plant response rating, Sedge, Umbrella", "setting": "umbrella sedge; [14]", "value": 100},
      {"measurement": "Plant response rating, Barnyardgrass", "setting": "barnyardgrass [5]; [12]", "value": 0},
      {"measurement": "Plant response rating, Barnyardgrass", "setting": "barnyardgrass [5]; 62 g ai/ha, scale 0 to 100, 0 no effect, 100 complete control, 13 to 15 days", "value": 20},
      {"measurement": "Plant response rating, Barnyardgrass", "setting": "barnyardgrass [5]; [13]", "value": 65},
      {"measurement": "Plant response rating, Barnyardgrass", "setting": "barnyardgrass [5]; [14]", "value": 80}
    ]}
  ]
}
